Columns and labels:
NEP enzyme = target: T1, NEP enzyme (Homo sapiens, UniProt P08473); assay: NEP enzyme inhibition assay (fluorogenic peptide substrate); type: biochemical; conditions: values given as lower bounds; * = prodrugs, may not exhibit NEP activity in an in vitro assay; read-out: NEP pIC50 (converted)
T1 construct: purchased R&D Systems, Minneapolis, Minn; 1182-ZN
Procedure, shortened: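 Recombinant human NEP was run with Mca-BK2 (10 μM) at room temperature in Tris buffer with 1 μM Zn. Compounds (10 μM–20 pM, 12 points) were pre-equilibrated 10 min, then reacted 20 min and acid-stopped. Fluorescence ex 320/em 405 nm, one-site competition fit gives pIC50. Thiol compounds may be pre-treated with 400 μM TCEP.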

human AT1 receptor = target: T2, human AT1 receptor (Homo sapiens, UniProt P30556); assay: AT1 radioligand binding assay (displacement of [Eu]AngII); conditions: membranes of CHO-K1 cells expressing cloned human AT1 receptor; values given as lower bounds; read-out: AT1 pKi (converted)
T2 construct: expressed in transfected cells; host or cells: CHO-K1
T2 sequence (P30556 1-359): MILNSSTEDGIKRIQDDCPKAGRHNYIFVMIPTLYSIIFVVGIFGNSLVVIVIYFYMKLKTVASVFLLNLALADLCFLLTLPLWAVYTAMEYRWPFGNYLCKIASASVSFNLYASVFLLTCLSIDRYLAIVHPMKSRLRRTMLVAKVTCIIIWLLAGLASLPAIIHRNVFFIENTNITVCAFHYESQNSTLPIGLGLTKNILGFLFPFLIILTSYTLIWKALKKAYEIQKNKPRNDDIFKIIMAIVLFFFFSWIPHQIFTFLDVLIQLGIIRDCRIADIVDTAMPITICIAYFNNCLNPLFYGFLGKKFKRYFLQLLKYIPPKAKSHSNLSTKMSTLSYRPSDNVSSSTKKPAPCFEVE
Procedure, shortened: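 Membranes from CHO-K1 cells stably expressing cloned human AT1, 0.2 μg protein, in 50 mM Tris/HCl pH 7.5, 5 mM MgCl2, 0.025% BSA. Compounds displaced [Eu]AngII over 120 min in the dark at room temperature or 37° C; filter-bound TRF read. Nonspecific binding with 10 μM angiotensin II; IC50 converted to Ki via Cheng-Prusoff, reported as pKi.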

T1 sequence (P08473 52-750 limits assumed): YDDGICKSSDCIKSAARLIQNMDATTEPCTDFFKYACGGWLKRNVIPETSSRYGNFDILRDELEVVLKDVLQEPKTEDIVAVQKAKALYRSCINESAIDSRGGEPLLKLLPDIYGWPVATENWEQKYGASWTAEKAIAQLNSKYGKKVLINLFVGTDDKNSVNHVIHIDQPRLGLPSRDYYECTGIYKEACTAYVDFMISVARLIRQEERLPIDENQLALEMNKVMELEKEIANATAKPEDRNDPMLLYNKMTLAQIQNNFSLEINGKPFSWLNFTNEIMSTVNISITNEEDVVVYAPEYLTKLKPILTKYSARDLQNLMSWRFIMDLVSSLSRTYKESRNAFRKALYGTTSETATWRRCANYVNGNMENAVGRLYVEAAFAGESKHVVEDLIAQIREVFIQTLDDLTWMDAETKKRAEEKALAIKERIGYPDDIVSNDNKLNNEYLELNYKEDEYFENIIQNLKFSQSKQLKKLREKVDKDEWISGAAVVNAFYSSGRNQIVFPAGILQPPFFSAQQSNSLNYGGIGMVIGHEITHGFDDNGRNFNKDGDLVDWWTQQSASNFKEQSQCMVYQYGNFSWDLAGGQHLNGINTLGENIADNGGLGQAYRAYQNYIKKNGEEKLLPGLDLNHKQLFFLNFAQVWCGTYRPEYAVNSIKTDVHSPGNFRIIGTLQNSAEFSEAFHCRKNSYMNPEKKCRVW

Structure (SMILES)	IC50 (NEP enzyme) [nM]	Ki (human AT1 receptor) [nM]
CCCCc1cc(C(=O)N[C@H](Cc2ccccc2)[C@@H](O)C(=O)O)nn1Cc1ccc(-c2ccccc2S(=O)(=O)NC(C)=O)cc1F [Example 6-11, (2R,3R)-3-{[1-(2′-Acetylsulfamoyl-3-fluorobiphenyl-4-ylmethyl)-5-butyl-1H-pyrazole-3-carbonyl]amino}-2-hydroxy-4-phenylbutyric acid]	≤ 1000	≤ 10
CCCc1cc(C(=O)N[C@@H](CC(=O)O)Cc2ccccc2C(F)(F)F)nn1Cc1ccc(-c2ccccc2S(=O)(=O)NC(C)=O)cc1 [Example 6-25, (R)-3-{[1-(2′-Acetylsulfamoylbiphenyl-4-ylmethyl)-5-propyl-1H-pyrazole-3-carbonyl]amino}-4-(2-trifluoromethylphenyl)butyric acid]	≤ 1000	≤ 10
CCOc1cc(C(=O)N[C@@H](CC(=O)O)Cc2ccccc2)nn1Cc1ccc(-c2ccccc2S(=O)(=O)NC(C)=O)cc1F [Example 6-24, (R)-3-{[1-(2′-Acetylsulfamoyl-3-fluorobiphenyl-4-ylmethyl)-5-ethoxy-1H-pyrazole-3-carbonyl]amino}-4-phenylbutyric acid]	≤ 10000	≤ 10
CCCc1cc(C(=O)N[C@H](Cc2ccccc2)[C@@H](O)C(=O)O)nn1Cc1ccc(-c2ccccc2S(=O)(=O)NC(C)=O)nc1 [Example 13, (2R,3R)-3-({1-[6-(2-Acetylsulfamoylphenyl)pyridin-3-ylmethyl]-5-propyl-1H-pyrazole-3-carbonyl}amino)-2-hydroxy-4-phenylbutyric Acid]	≤ 100	≤ 100
CCOc1cc(C(=O)N[C@@H](CC(=O)O)Cc2ccccc2)nn1Cc1ccc(-c2ccccc2-c2nnn[nH]2)cc1F [Example 3-31, (R)-3-({5-Ethoxy-1-[3-fluoro-2′-(1H-tetrazol-5-yl)biphenyl-4-ylmethyl]-1H-pyrazole-3-carbonyl}amino)-4-phenylbutyric acid]	≤ 10000	≤ 100
CCCc1cc(C(=O)N[C@H](CC(C)C)CN(O)C=O)nn1Cc1ccc(-c2ccccc2S(=O)(=O)NC(C)=O)cc1 [Example 6-15, 1-(2′-Acetylsulfamoyl-biphenyl-4-ylmethyl)-5-propyl-1H-pyrazole-3-carboxylic acid {(R)-1-[(formyl-hydroxy-amino)-methyl]-3-methylbutyl}amide]	≤ 100	≤ 10
CCCc1cc(C(=O)N[C@@H](CC(=O)O)Cc2ccccc2Cl)nn1Cc1ccc(-c2ccccc2-c2nnn[nH]2)cc1F [Example 3-20, (R)-4-(2-chlorophenyl)-3-(1-((3-fluoro-2′-(1H-tetrazol-5-yl)biphenyl-4-yl)methyl)-5-propyl-1H-pyrazole-3-carboxamido)butanoic acid]	≤ 1000	≤ 100
CCCc1cc(C(=O)N[C@H](Cc2ccccc2)[C@@H](O)C(=O)O)nn1Cc1ccc(-c2ccccc2S(=O)(=O)NC(C)=O)cc1F [Example 6-14, (2R,3R)-3-(1-((2′-(N-acetylsulfamoyl)-3-fluorobiphenyl-4-yl)methyl)-5-propyl-1H-pyrazole-3-carboxamido)-2-hydroxy-4-phenylbutanoic acid]	≤ 100	≤ 10
CCOc1cc(C(=O)N[C@H](Cc2ccccc2)[C@@H](O)C(=O)O)nn1Cc1ccc(-c2ccccc2S(=O)(=O)NC(C)=O)cc1F [Example 6-4, (2R,3R)-3-{[1-(2′-Acetylsulfamoyl-3-fluorobiphenyl-4-ylmethyl)-5-ethoxy-1H-pyrazole-3-carbonyl]amino}-2-hydroxy-4-phenylbutyric acid]	≤ 100	≤ 10
CCCc1cc(C(=O)N[C@H](CC(C)C)CN(O)C=O)nn1Cc1ccc(-c2ccccc2-c2nnn[nH]2)cc1 [Example 3-25, 5-Propyl-1-[2′-(1H-tetrazol-5-yl)-biphenyl-4-ylmethyl]-1H-pyrazole-3-carboxylic acid {(R)-1-[(formylhydroxyamino)methyl]-3-methylbutyl}amide]	≤ 100	≤ 10
CCOc1cc(C(=O)N[C@H](Cc2ccccc2)[C@@H](O)C(=O)O)nn1Cc1ccc(-c2ccccc2-c2nnn[nH]2)cc1 [Example 3-9, (2R,3R)-3-({5-Ethoxy-1-[2′-(1H-tetrazol-5-yl)biphenyl-4-ylmethyl]-1H-pyrazole-3-carbonyl}amino)-2-hydroxy-4-phenylbutyric acid]	≤ 1000	≤ 100
CCCc1cc(C(=O)N[C@@H](CC(=O)NO)Cc2ccccc2)nn1Cc1ccc(-c2ccccc2-c2nnn[nH]2)cc1 [Example 3-16, 5-Propyl-1-[2′-(1H-tetrazol-5-yl)-biphenyl-4-ylmethyl]-1H-pyrazole-3-carboxylic acid ((R)-1-hydroxycarbamoylmethyl-2-phenylethyl)amide]	≤ 100	≤ 10
CCOc1cc(C(=O)N[C@H](Cc2ccccc2)[C@@H](O)C(=O)O)nn1Cc1ccc(-c2ccccc2-c2nnn[nH]2)cc1F [Example 3-8, (2R,3R)-3-({5-Ethoxy-1-[3-fluoro-2′-(1H-tetrazol-5-yl)biphenyl-4-ylmethyl]-1H-pyrazole-3-carbonyl}amino)-2-hydroxy-4-phenylbutyric acid]	≤ 1000	≤ 100
CCCc1cc(C(=O)N[C@@H](CC(=O)NO)Cc2ccccc2)nn1Cc1c(F)cc(-c2ccccc2S(=O)(=O)NC(C)=O)cc1F [Example 6-20, 1-(2′-Acetylsulfamoyl-3,5-difluorobiphenyl-4-ylmethyl)-5-propyl-1H-pyrazole-3-carboxylic acid ((R)-1-hydroxycarbamoylmethyl-2-phenylethyl)amide]	≤ 100	≤ 10
CCCc1cc(C(=O)N[C@@H](CC(=O)O)Cc2ccccc2Br)nn1Cc1ccc(-c2ccccc2-c2nnn[nH]2)cc1 [Example 3-13, (R)-4-(2-Bromophenyl)-3-({5-propyl-1-[2′-(1H-tetrazol-5-yl)-biphenyl-4-ylmethyl]-1H-pyrazole-3-carbonyl}amino)butyric acid]	≤ 1000	≤ 10

Other lines, results leading:

IC50 (NEP enzyme) [nM]	Ki (human AT1 receptor) [nM]	Structure (SMILES)
≤ 100	≤ 100	CCCc1cc(C(=O)N[C@@H](CS)Cc2ccccc2)nn1Cc1ccc(-c2ccccc2C(=O)O)cc1 [Example 9-6, 4′-[3-((R)-1-Mercaptomethyl-2-phenylethylcarbamoyl)-5-propylpyrazol-1-ylmethyl]biphenyl-2-carboxylic acid]
≤ 100	≤ 10	CCCc1cc(C(=O)N[C@@H](CC(=O)O)Cc2ccccc2)nn1Cc1ccc(-c2ccccc2-c2nnn[nH]2)nc1 [Example 14-6, (R)-4-Phenyl-3-[(5-propyl-1-{6-[2-(1H-tetrazol-5-yl)-phenyl]-pyridin-3-ylmethyl}-1H-pyrazole-3-carbonyl)amino]butyric acid]
≤ 1000	≤ 10	CCCc1cc(C(=O)N[C@H](Cc2ccccc2)[C@@H](O)C(=O)O)nn1Cc1ccc(-c2ccccc2S(=O)(=O)NC(=O)COC)cc1 [Example 7-8, (2R,3R)-2-Hydroxy-3-({1-[2′-(2-methoxyacetylsulfamoyl)biphenyl-4-ylmethyl]-5-propyl-1H-pyrazole-3-carbonyl}amino)-4-phenylbutyric acid]
≤ 100	≤ 10	CCCc1cc(C(=O)N[C@H](Cc2ccccc2)[C@@H](O)C(=O)O)nn1Cc1ccc(-c2ccccc2S(=O)(=O)NC(=O)[C@@H](C)O)cc1 [Example 7-16, (2R,3R)-2-Hydroxy-3-({1-[2′-((R)-2-hydroxypropionylsulfamoyl)biphenyl-4-ylmethyl]-5-propyl-1H-pyrazole-3-carbonyl}amino)-4-phenylbutyric acid]
≤ 100	≤ 10	CCCc1cc(C(=O)N[C@H](Cc2ccccc2)[C@@H](O)C(=O)O)nn1Cc1ccc(-c2ccccc2S(=O)(=O)NC(=O)NC)cc1 [Example 7-11, (2R,3R)-2-hydroxy-3-(1-((2′-(N-(methylcarbamoyl)sulfamoyl)biphenyl-4-yl)methyl)-5-propyl-1H-pyrazole-3-carboxamido)-4-phenylbutanoic acid]
≤ 100	≤ 100	CCOc1cc(C(=O)N[C@@H](CS)Cc2ccccc2)nn1Cc1ccc(-c2ccccc2C(=O)O)cc1F [Example 9-2, 4′-[3-((R)-1-Benzyl-2-mercaptoethylcarbamoyl)-5-ethoxypyrazol-1-ylmethyl]-3′-fluorobiphenyl-2-carboxylic acid]
≤ 100	≤ 100	CCCc1cc(C(=O)N[C@H](Cc2ccccc2)[C@@H](O)C(=O)O)nn1Cc1ccc(-c2ccccc2C(=O)O)c(F)c1F [Example 9-7, 4′-[3-((1R,2R)-1-Benzyl-2-carboxy-2-hydroxyethylcarbamoyl)-5-propylpyrazol-1-ylmethyl]-2′,3′-difluorobiphenyl-2-carboxylic acid]
≤ 100	≤ 100	CCCCc1cc(C(=O)N[C@@H](CS)CC(C)C)nn1Cc1ccc(-c2ccccc2C(=O)O)cc1F [Example 9-3, 4′-[5-Butyl-3-((R)-1-mercaptomethyl-3-methylbutylcarbamoyl)-pyrazol-1-ylmethyl]-3′-fluorobiphenyl-2-carboxylic acid]

Reference: US8350027B2, “Dual-acting pyrazole antihypertensive agents” (Theravance, Inc., priority 2009, dated 2013)
